Here are results for four compounds from ChEMBL document CHEMBL1151666, “Novel Zaragozic Acids from Leptodontidium elatius” (J Nat Prod, 1996).

A word on the IC50: it is the concentration that inhibits the measured activity by half. A high value points to a need for much substance. As usually defined, the Ki is a measure of affinity in units of concentration, obtained from inhibition or displacement.

The target in assay [1] is T1, Squalene synthase (Homo sapiens, UniProt P37268).
T1 sequence (P37268 whole entry): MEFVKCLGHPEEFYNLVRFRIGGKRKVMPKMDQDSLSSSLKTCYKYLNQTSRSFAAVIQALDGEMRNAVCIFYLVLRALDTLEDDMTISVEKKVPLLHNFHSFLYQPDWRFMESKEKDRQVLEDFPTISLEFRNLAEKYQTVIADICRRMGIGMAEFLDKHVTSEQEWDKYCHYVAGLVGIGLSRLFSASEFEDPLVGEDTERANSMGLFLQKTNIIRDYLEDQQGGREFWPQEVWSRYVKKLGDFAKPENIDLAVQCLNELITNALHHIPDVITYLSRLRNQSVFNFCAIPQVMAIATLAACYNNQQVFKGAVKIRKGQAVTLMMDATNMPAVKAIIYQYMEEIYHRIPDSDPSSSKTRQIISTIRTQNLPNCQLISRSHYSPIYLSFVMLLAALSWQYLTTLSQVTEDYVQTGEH
Briefly: Inhibition of squalene synthase.

Assay [2] addresses T2, Squalene synthase (Rattus norvegicus, UniProt Q02769).
T2 sequence (Q02769 whole entry): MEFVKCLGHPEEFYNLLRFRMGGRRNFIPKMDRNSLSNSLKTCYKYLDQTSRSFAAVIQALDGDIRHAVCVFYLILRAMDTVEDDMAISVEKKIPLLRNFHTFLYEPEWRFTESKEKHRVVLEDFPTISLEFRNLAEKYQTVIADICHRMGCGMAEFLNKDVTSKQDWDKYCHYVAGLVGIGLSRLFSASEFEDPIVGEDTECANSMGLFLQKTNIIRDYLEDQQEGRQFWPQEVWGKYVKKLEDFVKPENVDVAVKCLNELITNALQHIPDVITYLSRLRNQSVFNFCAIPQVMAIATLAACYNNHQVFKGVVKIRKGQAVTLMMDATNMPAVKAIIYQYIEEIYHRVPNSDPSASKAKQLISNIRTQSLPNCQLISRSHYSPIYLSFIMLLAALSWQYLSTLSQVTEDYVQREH
In words: Inhibition of rat squalene synthase.

Structures are written as SMILES.

With `C[C@@H](CCCC[C@]12O[C@H](C(=O)O)[C@@](O)(C(=O)O)[C@](C(=O)O)(O1)[C@H](OC(=O)CC/C=C/[C@@H](C)CCCc1ccccc1)[C@H]2O)Cc1ccccc1`, the half-inhibitory concentration (IC50) at Squalene synthase [1] amounted to 0.2 nM.

`CCCCCCC[C@@H](CCC[C@]12O[C@H](C(=O)O)[C@@](O)(C(=O)O)[C@](C(=O)O)(O1)[C@H](OC(=O)CC/C=C/[C@@H](C)CCCc1ccccc1)[C@H]2O)OC(C)=O` [ZARAGOZIC ACID F] had an IC50 against Squalene synthase [1] of 2 nM.

As for `C[C@H](/C=C/CCC(=O)O[C@@H]1[C@@H](O)[C@@]2(CC/C=C/[C@H](C)CCCc3ccccc3)O[C@H](C(=O)O)[C@@](O)(C(=O)O)[C@]1(C(=O)O)O2)CCCc1ccccc1` [ZARAGOZIC ACID E], the IC50 at Squalene synthase [1] turned out to be 4 nM.

With `CC(=O)O[C@H](CCC[C@]12O[C@H](C(=O)O)[C@@](O)(C(=O)O)[C@](C(=O)O)(O1)[C@H](OC(=O)CC/C=C/[C@H](C)CCCc1ccccc1)[C@H]2O)[C@H](C)Cc1ccccc1` [ZARAGOZIC ACID C], the IC50 on Squalene synthase [1] was 0.3 nM. The Ki at Squalene synthase [2] amounted to 0.045 nM.
